Assay results: US20210169871A1, “PHARMACEUTICAL COMPOSITIONS WITH REDUCED TERT-BUTANOL LEVELS” (TARVEDA THERAPEUTICS, INC., priority 2018, published 2021)
Marks after values point to notes of the source that are not given here.

How the values were obtained:
[1] = pH-dependent lactone / open ring carboxylic acid equilibrium in solution; type: physicochemical
Source text: In solution, SDC-TRAP-0063 contains a lactone ring at pH-dependent equilibrium with the corresponding open chain carboxylic acid form. At high pH (above pH of around 9) the equilibrium shifts toward an open ring carboxylic acid form and at low pH it shifts toward the closed ring lactone form.
During the manufacturing process, SDC-TRAP-0063 is converted to SDC-TRAP-0063 Sodium, which is the dominant form at pH above approximately 9.3. SDC-TRAP-0063 Sodium drug product is aseptically manufactured as a sterile-filtered solution that is lyophilized. […] There is minimal impact from annealing or secondary drying modifications on TBA level in SDC-TRAP-0063 Sodium drug product.

[2] = Stability of SDC-TRAP-0063 sodium with added excipients
[3] = pH, testing of lyophilized drug product; type: physicochemical
[4] = Residual TBA in lyophilized drug product by gas chromatography (GC-HS); type: physicochemical; parameters: key to Residual TBA: TBA weight percentage in dry powder
Description: SDC-TRAP-0063 synthesized in Example 1 was dissolved in an alkaline co-solvent system comprising 30% (by volume) tert-butanol (TBA) and water to obtain a drug solution. Various polyols, such as PEG, glycerol and propylene glycol (PG), were added to the drug solution in vials prior to the standard lyophilization cycle (freezing→annealing→primary drying→secondary drying). Dry powder drug products comprising SDC-TRAP-0063 sodium were obtained. TBA weight percentages in the dry powders were measured by gas chromatography (GC-HS) (Table 1).

[5] = as above; type: physicochemical; parameters: key: TBA weight percentage in dry powder; details: 100 mg/mL
[6] = Residual moisture of lyophilized drug product; type: physicochemical; details: 100 mg/mL, 30% TBA, 4% PEG 400; Standard cycle (Table 2)
[7] = 100 mg/mL, 15% TBA, 3% PEG 400, NaOH 5.5 g/100 g (Table 3)
[8] = 100 mg/mL, 15% TBA, 6% Mannitol (Table 4)
[9] = 100 mg/mL, 30% TBA, 1% glycerol, standard lyophilization cycle (Table 1)
[10] = 100 mg/mL, 30% TBA, 2% PG, standard lyophilization cycle (Table 1)
[11] = 100 mg/mL, 30% TBA, 2% glycerol, standard lyophilization cycle (Table 1)
[12] = 100 mg/mL, 30% TBA, 3% PEG 400, NaOH 5.5 g/100 g (Table 3)
[13] = 100 mg/mL, 30% TBA, 3% PEG 400, standard lyophilization cycle (Table 1)
[14] = 100 mg/mL, 30% TBA, 3% glycerol, Standard cycle (Table 2)
[15] = 100 mg/mL, 30% TBA, 3.5% PEG 400, Standard cycle (Table 2)
[16] = 100 mg/mL, 30% TBA, 3.5% glycerol, Standard cycle (Table 2)
[17] = 100 mg/mL, 30% TBA, 4% PEG 400, BnOH 0.1 mg/vial, NaOH 5.5 g/100 g (Table 3)
[18] = 100 mg/mL, 30% TBA, 4% PEG 400, NaOH 5 g/100 g (Table 3)
[19] = 100 mg/mL, 30% TBA, 4% PEG 400, NaOH 5.5 g/100 g (Table 3)
[20] = 100 mg/mL, 30% TBA, 4% PEG 400, Standard cycle (Table 2)
[21] = 100 mg/mL, 30% TBA, 4% PEG 400, standard lyophilization cycle (Table 1)
[22] = 100 mg/mL, 30% TBA, 4% PEG 1000 (Table 4)
[23] = 100 mg/mL, 30% TBA, 4% PEG 2000 (Table 4)
[24] = 100 mg/mL, 30% TBA, 4% PEG 4000 (Table 4)
[25] = 100 mg/mL, 30% TBA, 4% PG, standard lyophilization cycle (Table 1)
[26] = 100 mg/mL, 30% TBA, 4% glycerol, Standard cycle (Table 2)
[27] = 100 mg/mL, 30% TBA, 4% glycerol, standard lyophilization cycle (Table 1)

In the case of `CCc1c2c(nc3ccc(OC(=O)N4CCC(CCn5ccc6cc(-n7c(O)nnc7-c7cc(C(C)C)c(O)cc7O)ccc65)CC4)cc13)-c1cc([C@@](O)(CC)C(=O)[O-])c(CO)c(=O)n1C2.[Na+]` [SDC-TRAP-0063 sodium, Sodium (S)-2-(2-((4-(2-(5-(3-(2,4-dihydroxy-5-isopropylphenyl)-5-hydroxy-4H-1,2,4-triazol-4-yl)-1H-indol-1-yl)ethyl)piperidine-1-carbonyl)oxy)-12-ethyl-8-(hydroxymethyl)-9-oxo-9,11-dihydroindolizino[1,2-b]quinolin-7-yl)-2-hydroxybutanoate], the “pH above which SDC-TRAP-0063 Sodium is the dominant form” value ([1]; manufacturing process) is reported as “approximately 9.3”, the “Stability with PEG-400 addition” value ([2]; PEG-400 added as excipient) is reported as “no impact on the stability” and the “Stability with propylene glycol addition” value ([2]; propylene glycol added as excipient) is reported as “faster decay”.
In the case of `CCc1c2c(nc3ccc(OC(=O)N4CCC(CCn5ccc6cc(-n7c(O)nnc7-c7cc(C(C)C)c(O)cc7O)ccc65)CC4)cc13)-c1cc3c(c(=O)n1C2)COC(=O)[C@]3(O)CC` [SDC-TRAP-0063, (S)-4,11-diethyl-4-hydroxy-3,14-dioxo-3,4,12,14-tetrahydro-1H-pyrano[3′,4′:6,7]indolizino[1,2-b]quinolin-9-yl 4-(2-(5-(3-(2,4-dihydroxy-5-isopropylphenyl)-5-hydroxy-4H-1,2,4-triazol-4-yl)-1H-indol-1-yl)ethyl)piperidine-1-carboxylate], the “pH above which equilibrium shifts toward open ring carboxylic acid form” value [1] is reported as “around 9”, the pH [3, 7] is reported as 10.0 and the pH ([3]; 100 mg/mL, 15% TBA, 4% Mannitol (Table 4)) is reported as 9.8. The pH [3, 8] was 9.8, the pH ([3]; 100 mg/mL, 30% TBA, 0% PEG 400, 0% glycerol, Standard cycle (Table 2)) was 10.1-10.3 and the pH ([3]; 100 mg/mL, 30% TBA, 0% PEG 400, BnOH 0 mg/vial, NaOH 0 g/100 g (Table 3)) was 10.1-10.3. For the same compound, the pH ([3]; 100 mg/mL, 30% TBA, 0% PEG 1000, 0% PEG 2000, 0% PEG 4000, 0% Mannitol (Table 4)) was 10.1-10.3, the pH [3, 9] was 10.2 and the pH [3, 10] was 10.2. For the same compound, the pH [3, 11] was 10.2, the pH [3, 12] was 9.9 and the pH [3, 13] was 10.1. For the same compound, the pH ([3]; 100 mg/mL, 30% TBA, 3% glycerol, No secondary drying (Table 2)) was 10.1, the pH [3, 14] was 10.1 and the pH ([3]; 100 mg/mL, 30% TBA, 3.5% PEG 400, No secondary drying (Table 2)) was 10.1. It also gave a pH [3, 15] of 10.0, a pH [3, 16] of 10.1 and a pH [3, 17] of 10.0. It also gave a pH [3, 18] of 9.5, a pH [3, 19] of 9.9 and a pH [3, 20] of 10.1. It also gave a pH [3, 21] of 10.1, a pH [3, 22] of 9.7 and a pH [3, 23] of 9.9. The pH [3, 24] was 9.8, the pH [3, 25] was 10.1 and the pH [3, 26] was 10.1. For the same compound, the pH [3, 27] was 10.2, the pH ([3]; pre-lyophilization solution 100 mg/mL, 30% TBA, 0% PEG 400, 0% glycerol, 0% PG, standard lyophilization cycle) was 10.1-10.3 and the “Residual TBA” value [4, 7] was 3.3%. For the same compound, the “Residual TBA” value [4, 8] was 6.6%, the “Residual TBA” value ([4]; 100 mg/mL, 30% TBA, 0% PEG 400, 0% glycerol, Standard cycle, average (Table 2)) was 7% avg and the “Residual TBA” value ([4]; 100 mg/mL, 30% TBA, 0% PEG 400, BnOH 0 mg/vial, NaOH 0 g/100 g, average (Table 3)) was 7% avg. For the same compound, the “Residual TBA” value ([4]; 100 mg/mL, 30% TBA, 0% PEG 1000, 0% PEG 2000, 0% PEG 4000, 0% Mannitol, average (Table 4)) was 7% avg, the “Residual TBA” value [4, 9] was 7.1% and the “Residual TBA” value [4, 10] was 4.1%. For the same compound, the “Residual TBA” value [4, 11] was 5.2%, the “Residual TBA” value [4, 12] was 4.1% and the “Residual TBA” value [4, 13] was 3.6%. For the same compound, the “Residual TBA” value [4, 14] was 3.8%, the “Residual TBA” value [4, 15] was 3.3% and the “Residual TBA” value [4, 16] was 3.3%. The “Residual TBA” value ([4]; 100 mg/mL, 30% TBA, 4% PEG 400, 5% Mannitol (Table 5)) was 0.54, the “Residual TBA” value ([4]; 100 mg/mL, 30% TBA, 4% PEG 400, 7.5% Mannitol (Table 5)) was 1.36 and the “Residual TBA” value ([4]; 100 mg/mL, 30% TBA, 4% PEG 400, 10% Mannitol (Table 5)) was 2.22. The “Residual TBA” value [4, 17] was 2.4%, the “Residual TBA” value [4, 18] was 1.9% and the “Residual TBA” value [4, 19] was 2.2%. The “Residual TBA” value [4, 20] was 2.7%, the “Residual TBA” value [4, 21] was 2.0% and the “Residual TBA” value [4, 22] was 2.3%. For the same compound, the “Residual TBA” value [4, 23] was 2.2%, the “Residual TBA” value [4, 24] was 2.3% and the “Residual TBA” value [4, 25] was 1.5%. The “Residual TBA” value [4, 26] was 1.8%, the “Residual TBA” value [4, 27] was 1.2% and the “Residual TBA” value ([4]; 100 mg/mL, 30% TBA, 5% PEG 400, 5% Mannitol (Table 5)) was 0.11. The “Residual TBA” value ([4]; 100 mg/mL, 30% TBA, 5% PEG 400, 7.5% Mannitol (Table 5)) was 0.26, the “Residual TBA” value ([4]; 100 mg/mL, 30% TBA, 5% PEG 400, 10% Mannitol (Table 5)) was 0.74 and the “Residual TBA” value ([4]; 100 mg/mL, 30% TBA, 6% PEG 400, 5% Mannitol (Table 5), below the limit of quantitation of the method) was 0.05*. The “Residual TBA” value ([4]; 100 mg/mL, 30% TBA, 6% PEG 400, 7.5% Mannitol (Table 5), below the limit of quantitation of the method) was 0.09*, the “Residual TBA” value ([4]; 100 mg/mL, 30% TBA, 6% PEG 400, 10% Mannitol (Table 5)) was 0.16 and the “Residual TBA with 4% PEG-400” value ([4]; 4% of PEG-400) was 2.5-2.7%. The “Residual TBA” value ([4]; pre-lyophilization solution 100 mg/mL, 30% TBA, 0% PEG 400, 0% glycerol, 0% PG, standard lyophilization cycle, average) was 7% avg, the “Stability profile with 4% PEG-400” value ([2]; 4% of PEG-400) was “stability profile is acceptable” and the “Stability profile with glycerol as excipient” value ([2]; glycerol as excipient, compared with PEG-400) was “slightly worse stability profile”. The “Residual TBA” value ([5]; 15% TBA, 4% Mannitol (Table 4)) was 6.0%, the “Residual TBA” value ([5]; 30% TBA, 3% glycerol, No secondary drying (Table 2)) was 4.0% and the “Residual TBA” value ([5]; 30% TBA, 3.5% PEG 400, No secondary drying (Table 2)) was 3.2%. The Solubility in water (Solubility in water) was “does not have good solubility in water” and the “Residual Moisture” value [6] was 0.26%.
